Common to all, as to test: NCI anticancer screen, dose series, 48 h
In experiment [1] the test system is KM-20L2.
For experiment [2], the system named is DMS-273.
Experiment [3] deals with M19-MEL.
For experiment [4], the system named is HOP-18.
The subject of experiment [5] is XF498.
Experiment [6] deals with DLD-1.
Experiment [7] relates to SNB-78.
In experiment [8] the test system is DMS-114.
Experiment [9] has as its system RXF 631.

SMILES strings stand for the structures.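 Five compound concentrations were applied to cells in 96-well plates for 48 hours; endpoints were derived by simple linear interpolation of the resulting dose-response curve. At the GI50, growth is halved.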 Calls of active or inactive are those of the source. Rule as the data show it: active = GI50 up to about 1.1 µM and inactive = higher. A value given as a limit tells only on which side of the number the result lay.

Turning to `COC(=O)[C@@H]1CSC(=S)N1C(=O)C[C@H]1CC=CC[C@H]1CC(=O)Sc1ccccc1`, the GI50 is 20.9 µM (inactive) in experiment [1]; 21.7 µM (inactive) in experiment [2]; 23.4 µM (inactive) in [3]; 29.8 µM (inactive) in experiment [4]; 16.5 µM (inactive) in experiment [5]; 17 µM (inactive) in [6]. Besides, the GI50 in [7] was 22.3 µM (inactive).
With `NCCc1ccc2oc3cc(=O)c4ccccc4c-3nc2c1`, the GI50 in [1] is 2.75 µM (inactive); in experiment [2], 1.36 µM (inactive); in experiment [3], 0.3 µM (active); in experiment [8] it was 1.08 µM (active); in experiment [4] it was 1 µM (active); in experiment [5], 3.41 µM (inactive). In addition, the GI50 in [6] is 2.04 µM (inactive); in experiment [7], 9.35 µM (inactive); in [9], 2.96 µM (inactive).
For the compound `O=C1NC(=O)C(=Cc2c3ccccc3cc3ccccc23)C(=O)N1`, the GI50 in experiment [1] is > 100 µM (inactive); in experiment [2], > 100 µM (inactive); in experiment [3], > 100 µM (inactive); in experiment [4] it was 83.8 µM (inactive); in [5], > 100 µM (inactive); in [9], > 100 µM (inactive).
Turning to `O=C1CC2CCN(C(=O)c3ccccc3)CC2CCN1.O=C1CCC2CC(C(=O)c3ccccc3)CCC2CN1` (stereo unspecified), the GI50 in experiment [1], in experiment [2], in [3], in experiment [8], in experiment [4] and in [6] was > 100 µM (inactive) throughout. For the same compound, the GI50 in experiment [7] was > 100 µM (inactive).
On to `N#Cc1nc(Nc2ccc(Cl)cc2)sc1N`, for which the GI50 in experiment [1] is 17.1 µM (inactive); in [2], 13.2 µM (inactive); in [3], 12.4 µM (inactive); in experiment [8], 3.07 µM (inactive); in experiment [4], 29.4 µM (inactive); in [5], 14.3 µM (inactive). Also, the GI50 was 17.9 µM (inactive) in experiment [6] and 10.8 µM (inactive) in experiment [7].
Turning to `CCCCCNC(=O)C1C(=O)N(CCCCC)C(=O)/C1=N\N` (stereo unspecified), the GI50 in experiment [1] is 48.6 µM (inactive); in experiment [3], 86.5 µM (inactive); in experiment [4], 50 µM (inactive); in experiment [6], 70.6 µM (inactive); in experiment [7], 23.6 µM (inactive).
As for `NCCCNCCCCN(CCCN)/[N+]([O-])=N\O`, the GI50 in experiment [1], in experiment [2], in [3], in [8], in [4] and in [6] was > 100 µM (inactive) each time. The GI50 in [7] and in experiment [9] was > 100 µM (inactive) throughout.
Consider `CN1CC(C(=O)C2C(=O)c3ccccc3C2=O)C(=O)C(=O)C(C(=O)C2C(=O)c3ccccc3C2=O)C1` (stereo unspecified), for which the GI50 in experiment [2], in experiment [8], in experiment [5], in experiment [6] and in [9] was > 100 µM (inactive) throughout.
As for `O=C1NC(=O)C(C(=O)C(=O)Nc2cccc(C(F)(F)F)c2)C(=O)N1`, the GI50 in [1], in [3], in experiment [8], in experiment [6] and in experiment [7] was > 100 µM (inactive) throughout.
For `O=C(O/N=C1/CCCC/C1=C\c1ccccc1)c1ccccc1`, the GI50 in [1] was > 100 µM (inactive); in experiment [2], 40.3 µM (inactive); in experiment [3] it was > 100 µM (inactive); in experiment [8], 17.1 µM (inactive); in experiment [4], > 100 µM (inactive); in [5], > 100 µM (inactive). In addition, the GI50 in experiment [6] was 30.5 µM (inactive).
Turning to `COc1c(OC(C)=O)c(OC(C)=O)cc2c1-c1ccc(OC)c(=O)cc1C(NC(C)=O)CC2` (stereo unspecified), the GI50 in [1] was 0.0222 µM (active); in experiment [2], 0.0172 µM (active); in experiment [3], < 0.0167 µM (active); in experiment [8], < 0.0127 µM (active); in experiment [5] it was 0.0311 µM (active); in [6], 0.0186 µM (active). The GI50 in experiment [7] is < 0.01 µM (active); in experiment [9], 0.0676 µM (active).
With `CC(=O)OCC(OC(C)=O)C(OC(C)=O)C(OC(C)=O)C(=O)CNn1c(-c2ccc(C)cc2)nc2ccccc2c1=O` (stereo unspecified), the GI50 in experiment [1] is > 100 µM (inactive); in [2] it was > 100 µM (inactive); in experiment [3], > 100 µM (inactive); in experiment [8], 54.1 µM (inactive); in experiment [5] it was 16.5 µM (inactive); in experiment [7] it was > 100 µM (inactive).
On to `CCCCCCCCCCCCCCCC(=O)NC1CCc2cc(O)c(O)c(O)c2-c2ccc(SC)c(=O)cc21` (stereo unspecified), for which the GI50 in [1] was 15.7 µM (inactive); in experiment [2], 4.16 µM (inactive); in experiment [8] it was 1.94 µM (inactive); in experiment [5], 7.26 µM (inactive); in [6], 7.94 µM (inactive); in [7], 8.55 µM (inactive). The GI50 in experiment [9] is 13.2 µM (inactive).
Regarding `Cc1nn(-c2ccccc2)c2nc(N3CCOCC3)nnc12`, the GI50 is > 100 µM (inactive) in experiment [1]; > 100 µM (inactive) in experiment [2]; > 100 µM (inactive) in experiment [3]; 34.4 µM (inactive) in [8]; < 0.01 µM (active) in experiment [4]; 51.8 µM (inactive) in experiment [5]. For the same compound, the GI50 in [6] is 59.2 µM (inactive); in experiment [7], > 100 µM (inactive); in experiment [9] it was 92.7 µM (inactive).
On to `O=c1[nH]cc(COCC(O)CO)c(=O)[nH]1` (stereo unspecified), for which the GI50 in experiment [1], in experiment [2], in [3], in [8], in experiment [4] and in [5] was > 100 µM (inactive) in each case. In addition, the GI50 in [6], in experiment [7] and in [9] was > 100 µM (inactive) each time.
With `C/C(=N\NS(=O)(=O)c1ccccc1)c1ccc[n+]([O-])n1`, the GI50 in [1] is > 100 µM (inactive); in experiment [2], > 100 µM (inactive); in experiment [3], > 100 µM (inactive); in [8] it was 97.3 µM (inactive); in experiment [4], > 100 µM (inactive); in experiment [6], 44.9 µM (inactive). For the same compound, the GI50 in experiment [7] was 63.7 µM (inactive); in experiment [9], > 100 µM (inactive).
Regarding `Nc1nc(=O)c(/N=N/c2ccccc2)c(N)[nH]1`, the GI50 in experiment [1] was 59.2 µM (inactive); in [2], 37.2 µM (inactive); in [3] it was 39.3 µM (inactive); in [8], 25.6 µM (inactive); in experiment [4], 38 µM (inactive); in experiment [5], 60.1 µM (inactive). Also, the values for the GI50 in experiment [6] and in experiment [7] were 43.1 µM (inactive) and 19.6 µM (inactive), respectively.
Take `CCOC(=O)/C=C(/CN1C(=O)c2ccccc2C1=O)c1ccccc1`: the GI50 in experiment [1], in experiment [2], in experiment [3], in experiment [8], in experiment [4] and in experiment [5] was > 100 µM (inactive) in each case. Also, the GI50 in [6] is > 100 µM (inactive); in experiment [7] it was 88.9 µM (inactive).
With `CC(C)N(C(=O)C12C3C4C1(I)C1C2C3(I)C41C(=O)N(C(C)C)C(C)C)C(C)C` (stereo unspecified), the GI50 in experiment [1] is > 100 µM (inactive); in [2], > 100 µM (inactive); in experiment [3], > 47 µM (inactive); in [4], > 100 µM (inactive); in experiment [5] it was > 100 µM (inactive); in [6] it was > 56.5 µM (inactive). For the same compound, in experiment [9], the GI50 is > 100 µM (inactive).
Turning to `CCCNC(=O)C(C)(Cl)C(=O)c1ccccc1O` (stereo unspecified), the GI50 in experiment [1], in [2], in experiment [3], in experiment [8], in experiment [4] and in experiment [6] was > 100 µM (inactive) each time. For the same compound, the GI50 in [7] is > 100 µM (inactive).
In the case of `CCOC(=O)c1s/c(=N\Nc2nc3ccccc3cc2C2OCCO2)n(Cc2ccccc2)c1C`, the GI50 in [1], in experiment [2], in experiment [3], in [8], in experiment [4] and in experiment [5] was > 100 µM (inactive) in each case. Also, the GI50 in experiment [6], in experiment [7] and in experiment [9] was > 100 µM (inactive) each time.
Take `C=CCc1cc(OC)c(O)c(C(=O)/C=C/c2ccc(OC)c(OC)c2)c1`: the GI50 in experiment [1] was > 10 µM (inactive); in [2] it was 23.4 µM (inactive); in [8] it was 17.8 µM (inactive); in [5] it was 14.1 µM (inactive); in experiment [6], 18.4 µM (inactive); in [7], 28.8 µM (inactive). Besides, in experiment [9], the GI50 was 25.4 µM (inactive).
With `Nc1nc(SCCC/C=C/B(O)O)nc2c1ncn2C1OC(COP(=O)(O)O)C(O)C1O` (stereo unspecified), the GI50 in [1], in experiment [2], in experiment [3], in experiment [8], in experiment [4] and in experiment [5] was > 203 µM (inactive) throughout. For the same compound, the GI50 in experiment [6] and in [7] was > 203 µM (inactive) throughout.
As to `CN(CCN(C)C(=O)CCn1cc(F)c(=O)[nH]c1=O)C(=O)CCn1cc(F)c(=O)[nH]c1=O`, the GI50 in [1], in experiment [2], in experiment [3], in experiment [8] and in [5] was > 100 µM (inactive) throughout.
For `C=CCc1cc(-c2cc(CC=C)c(O)c(CN(CCCl)CCCl)c2)cc(CN(CCCl)CCCl)c1O`, the GI50 in experiment [1] is 16.6 µM (inactive); in experiment [2], 7.83 µM (inactive); in [3], 14.5 µM (inactive); in experiment [4] it was 25.2 µM (inactive); in experiment [5], > 10 µM (inactive); in experiment [6], 16.4 µM (inactive). Moreover, the GI50 in experiment [7] is 35.4 µM (inactive); in experiment [9], 14.1 µM (inactive).

Values taken from ChEMBL document CHEMBL1201862, “PubChem BioAssay data set” (2004).
